Measurements from the NIST ThermoML archive (doi:10.1016/j.jct.2013.01.017).

Settings: Liquid, Closed cell (Static) method

C=CCC [1-butene]
Settings	vapor or sublimation pressure [kPa]
302.9 K	343
307.83 K	396
312.96 K	456
318.05 K	521
322.94 K	593
328.06 K	671
332.97 K	759
337.99 K	855
342.98 K	957
347.93 K	1069
353.18 K	1197

FC(F)(F)C1(F)OC1(F)F (centres undefined) [2,2,3-trifluoro-3-(trifluoromethyl)oxirane]
Settings	vapor or sublimation pressure [kPa]
302.95 K	786
307.93 K	896
312.93 K	1015
317.86 K	1150
322.92 K	1298
327.88 K	1474
332.87 K	1658
337.87 K	1864
342.88 K	2075
347.85 K	2313

FCF [difluoromethane]
Settings	vapor or sublimation pressure [kPa]
280.59 K	1022
283.05 K	1109
285.52 K	1195
288.02 K	1280
290.46 K	1364
293.02 K	1474
295.49 K	1578
298.01 K	1684
300.48 K	1793
302.94 K	1918
305.46 K	2051
307.91 K	2179
310.48 K	2318
312.9 K	2459
315.43 K	2614
317.89 K	2772
320.41 K	2948
322.92 K	3120
325.42 K	3303
327.9 K	3498
330.35 K	3694
332.91 K	3910
335.4 K	4138
337.93 K	4370
340.43 K	4602
342.88 K	4854
345.4 K	5117
347.89 K	5392
